Active and inactive are the calls of the source. No cut-off for these calls is given here.
What was measured:
[1] = system: Mycobacterium tuberculosis; assay: Antimycobacterial activity against Mycobacterium tuberculosis H37Rv at 250 uM after 4 days by alamar blue assay; format: functional, organism-based
[2] = biological target: T1, Steroid C26-monooxygenase (Mycobacterium tuberculosis, UniProt P9WPP1)
T1 sequence (P9WPP1 whole entry): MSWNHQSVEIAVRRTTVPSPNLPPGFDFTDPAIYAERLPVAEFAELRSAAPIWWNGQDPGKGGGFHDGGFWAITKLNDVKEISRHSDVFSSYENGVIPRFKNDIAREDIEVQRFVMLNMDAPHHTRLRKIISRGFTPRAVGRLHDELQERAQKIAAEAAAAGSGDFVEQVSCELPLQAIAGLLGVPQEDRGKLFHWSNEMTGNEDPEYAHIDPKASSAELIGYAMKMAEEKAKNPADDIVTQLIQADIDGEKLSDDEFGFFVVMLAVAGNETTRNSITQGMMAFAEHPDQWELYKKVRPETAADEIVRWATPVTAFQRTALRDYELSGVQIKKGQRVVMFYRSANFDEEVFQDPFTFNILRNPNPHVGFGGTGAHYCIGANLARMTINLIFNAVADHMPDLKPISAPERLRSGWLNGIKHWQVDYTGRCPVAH

[3] = system: Mycobacterium tuberculosis; assay: Antimycobacterial activity against Mycobacterium tuberculosis H37Rv at 500 uM after 4 days by alamar blue assay; format: functional, organism-based
Cytochrome P450 130 = biological target: T2, Cytochrome P450 130 (Mycobacterium tuberculosis, UniProt P9WPN5)
T2 sequence (P9WPN5 whole entry): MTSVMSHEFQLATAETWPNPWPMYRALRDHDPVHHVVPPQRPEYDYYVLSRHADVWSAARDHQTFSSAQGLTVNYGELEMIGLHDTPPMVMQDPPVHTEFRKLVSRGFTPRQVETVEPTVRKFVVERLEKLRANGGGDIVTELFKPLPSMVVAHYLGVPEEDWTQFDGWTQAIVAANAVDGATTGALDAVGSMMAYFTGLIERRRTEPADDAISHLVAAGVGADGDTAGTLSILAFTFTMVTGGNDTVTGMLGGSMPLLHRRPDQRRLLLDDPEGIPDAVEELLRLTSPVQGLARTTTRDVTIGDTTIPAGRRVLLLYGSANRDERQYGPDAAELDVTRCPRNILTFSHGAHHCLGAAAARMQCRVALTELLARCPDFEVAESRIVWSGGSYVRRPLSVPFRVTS

[4] = biological target: T3, Sterol 14alpha-demethylase (Mycobacterium tuberculosis, UniProt P9WPP9)
T3 sequence (P9WPP9 whole entry): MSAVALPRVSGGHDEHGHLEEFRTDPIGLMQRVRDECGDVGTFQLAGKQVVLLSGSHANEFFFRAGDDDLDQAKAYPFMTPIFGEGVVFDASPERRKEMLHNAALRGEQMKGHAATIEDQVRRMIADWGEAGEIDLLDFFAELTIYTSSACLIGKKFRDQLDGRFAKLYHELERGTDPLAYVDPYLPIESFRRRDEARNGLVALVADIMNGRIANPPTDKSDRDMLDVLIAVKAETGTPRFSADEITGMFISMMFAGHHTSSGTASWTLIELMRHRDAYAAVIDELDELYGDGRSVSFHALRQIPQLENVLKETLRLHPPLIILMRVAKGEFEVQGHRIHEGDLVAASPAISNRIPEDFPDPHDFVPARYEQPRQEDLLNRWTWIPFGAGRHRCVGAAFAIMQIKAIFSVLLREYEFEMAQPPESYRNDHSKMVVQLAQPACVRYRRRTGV

[5] = biological target: T3, Sterol 14alpha-demethylase; remark: listed apart in the source
[6] = system: Mycobacterium tuberculosis; assay: Antimycobacterial activity against Mycobacterium tuberculosis H37Rv at 100 uM after 4 days by alamar blue assay; format: functional, organism-based
[7] = system: Mycobacterium tuberculosis; assay: Antimycobacterial activity against Mycobacterium tuberculosis H37Rv at 200 uM after 4 days by alamar blue assay; format: functional, organism-based

Compound	Kd [4] [µM]	Kd [5] [µM]	further results
CCC(C(=O)Nc1ccncc1)c1ccccc1 (stereo not drawn)	–	–	Activity [1]: Active; Kd [2]: 2000 µM; Activity [3]: Active; Kd (Cytochrome P450 130): 260 µM
c1ccc(-c2c[nH]cn2)cc1	1.3	–	–
O=C(Nc1ccncc1)C1(c2ccccc2)CCOCC1	–	5	–
NCC(=O)N1c2ccccc2Sc2ccccc21	–	5	–
CCC1(C)CC(CCN)(c2ccc(OC)cc2)CCO1 (stereo not drawn)	–	5	–
O=C1c2cc(O)ccc2-c2ccc(O)cc21	25	–	–
C[C@]12CC[C@@H]3c4ccc(O)cc4CC[C@H]3[C@@H]1C[C@@H](O)[C@@H]2O [ESTRIOL]	100	–	–
COc1ccccc1C(CCN)c1ccco1 (stereo not drawn)	–	5	–
Nc1ccc(NS(=O)(=O)c2ccc(Cl)cc2)cc1	–	5	–
O=C(c1ccc(O)cc1)c1ccc(O)cc1	28	–	Activity [6]: Active; Activity ([2]; mycobacterium tuberculosis): Not Active; Activity (Cytochrome P450 130; mycobacterium tuberculosis): Not Active; Activity [7]: Active
O=C(Nc1ccncc1)C(NS(=O)(=O)c1cccc2nsnc12)c1ccccc1 (stereo not drawn)	–	5	–
